Experimental data: patent US20020002171A1, “Materials and methods for killing nematodes and nematode eggs” (priority 2000, published 2002)

How the values were obtained:
[1] = tested on: C. elegans; experiment: C. elegans nematode activity assay, 2-fold dilutions from 140 μM, visual evaluation at Day 4 (Example 3); type: in vivo, Caenorhabditis elegans
Description: The eggs were allowed to hatch, and the L1 larvae collected. See The Nematode Caenorhabditis elegans (1988) Cold Spring Harbor Laboratory Press. Using a Matrix Programmable Pipette, the L1s were distributed into 96-well tissue culture plates, 20 L1 in 50 μl NGM per well. Antibiotic/Antimyoticwas added to each well, and 1% by weight E. coli strain HB101. The subject anthelmintic compounds were stored at 5 mM in 100% DMSO. 0.7 μl of compounds 1-31 were added to the left-most column of wells to yield a final concentration of 70 μM in 1.4% DMSO, with 1.4% DMSO only as the control. The compounds were then subjected to 5 more 3-fold dilutions from left to right to yield 6 column concentrations of 70 μM, 23.3 μM, 7.8 μM, 2.6 μM, 0.9 μM, and 0.3 μM. Plates were stored in air-tight Rubbermaid plastic boxes at 20° C. The nematodes had cleared all control wells by day 4, and nematode viability was scored by visual examination under a 100× dissecting microsope on day 5. A visual viability scoring system was used as follows:
The C. elegans nematode activity assay for anthelmintic compounds 32-46 was similar to that described in Example 2 above, except for the following noted differences. The compound concentrations were adjusted to 140 μM and subjected to 2-fold dilutions to yield 140 μM, 70 μM, 35 μM, 17.5 μM, 8.8 μM, 4.4 μM, 2.2 μM, and 1.09 μM.

[2] = tested on: Meloidogyne incognita; details: cited from earlier work
[3] = tested on: Caenorhabditis elegans; experiment: C. elegans L1 nematicidal dose response in 96-well plates, 5 day visual score (Example 2; same procedure for Example 7, Table 3); type: in vivo; design: key to 5 Day Visual Score V1 / 5 Day Visual Score V2 / 5 Day Visual Score V3 / 5 Day Visual Score V4 / 5 Day Visual Score V6 / 5 Day Visual Score V5 / Initial HTS Run Visual Score / Follow-up HTS Run Visual Score: Dead: only stiff L1s (no movement); Dead (L4): worms are dead, but at a later larval stage; majority of worms are L1 (based on size) worms move when plate is tapped; majority of worms are L2 (based on size); majority of worms are L3 (based on size); majority of worms are L4 (based on size); AD: majority of worms are adult; #AD: 5 adult worms or less; B!: sterile (0-25 progeny); B: low broodsize (25-100 progeny); ˜B: moderate broodsize (100-250 progeny); <: reduced broodsize (250-500 progeny); OK: no effect (˜1000+ progeny); details: for 5 Day Visual Score V1 / 5 Day Visual Score V2 / 5 Day Visual Score V5 / 5 Day Visual Score V4 / 5 Day Visual Score V6 / 5 Day Visual Score V3: dose response; for 5 Day Visual Score V1: dilution V1, 5 day; for 5 Day Visual Score V2: dilution V2, 5 day; for 5 Day Visual Score V5: dilution V5, 5 day; for 5 Day Visual Score V4: dilution V4, 5 day; for 5 Day Visual Score V6: dilution V6, 5 day; for 5 Day Visual Score V3: dilution V3, 5 day
In short: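 Scoring was by eye at 100× on day 5, after incubation at 20° C, of 20 C. elegans L1s per well fed 1% E. coli HB101 in NGM. Compound columns V1–V6 spanned 70 μM to 0.3 μM in 3-fold steps, with 1.4% DMSO in the top well and as control.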

Row | Structure (SMILES) | visual evaluation of viability ([1]; 8.8 μM) | visual evaluation of viability ([1]; 1.09 μM) | visual evaluation of viability ([1]; 2.2 μM) | visual evaluation of viability ([1]; 4.4 μM) | visual evaluation of viability ([1]; 17.5 μM) | visual evaluation of viability ([1]; 35 μM) | visual evaluation of viability ([1]; 70 μM) | activity against the root-knot nematode [2] | Follow-up HTS Run % Run [3] | Follow-up HTS Run mOD [3] | Initial HTS Run % Run [3] | Initial HTS Run mOD [3] | 5 Day Visual Score V1 [3] | 5 Day Visual Score V2 [3] | 5 Day Visual Score V5 [3] | Follow-up HTS Run Visual Score [3] | Initial HTS Run Visual Score [3] | 5 Day Visual Score V4 [3] | 5 Day Visual Score V6 [3] | 5 Day Visual Score V3 [3]
1 | NCc1ccc(-c2ccccc2)cc1 [AKC-138] | B (low broodsize (25-100 progeny)) |  |  |  |  |  |  |  |  |  |  |  |  |  |  |  |  |  |  | 
2 | CCCCCCCCOc1ccc2nc(CCSC)[nH]c2c1 [AKC-144] | OK (no effect (˜1000+ progeny)) | OK (no effect (˜1000+ progeny)) | OK (no effect (˜1000+ progeny)) | OK (no effect (˜1000+ progeny)) | ˜B (moderate broodsize (100-250 progeny)) | B (low broodsize (25-100 progeny)) | L4/AD/B |  |  |  |  |  |  |  |  |  |  |  |  | 
3 | CC[C@H](C)[C@H]1O[C@]2(CC(O)[C@@H]1C)C[C@@H]1C[C@@H](C/C=C(\C)[C@@H](OC3CC(OC)C(OC4CC(OC)C(O)C(C)O4)C(C)O3)[C@@H](C)/C=C/C=C3\CO[C@@H]4[C@H](O)C(C)=C[C@@H](C(=O)O1)[C@]34O)O2 (some centres unmarked) [Avermectin B2a] |  |  |  |  |  |  |  | active |  |  |  |  |  |  |  |  |  |  |  | 
4 | CN(Cc1ccccc1)c1nc(NCc2ccccc2)ns1 [compound 328] |  |  |  |  |  |  |  |  | 121% | 195 mOD | 120% | 132 mOD | L1 | L1 | < (reduced broodsize (250-500 progeny)) |  |  |  |  | 
5 | Cc1cccc(C)c1N1CCN(c2nc(NC3CCCCCCCCCCC3)ns2)CC1 [compound 329] |  |  |  |  |  |  |  |  | 78% | 125 mOD | 100% | 110 mOD | Dead | Dead | OK (no effect (˜1000+ progeny)) | Dead | Dead (L2/L3) | OK (no effect (˜1000+ progeny)) | OK (no effect (˜1000+ progeny)) | 
6 | CCCCCCCCCCCCCCCCCCN(C)c1nc(NC2CCCCCCCCCCC2)ns1 [compound 330] |  |  |  |  |  |  |  |  | 56% | 90 mOD | 107% | 118 mOD | Dead | Dead | OK (no effect (˜1000+ progeny)) | Dead | Dead (L2/L3) | OK (no effect (˜1000+ progeny)) | OK (no effect (˜1000+ progeny)) | 
7 | CCCCC(CC)CN(CC(CC)CCCC)c1nc(NC2CCCCCCCCCCC2)ns1 (centres unmarked) [compound 331] |  |  |  |  |  |  |  |  | 85% | 137 mOD | 95% | 104 mOD | Dead | Dead | OK (no effect (˜1000+ progeny)) | Dead | Dead | OK (no effect (˜1000+ progeny)) | OK (no effect (˜1000+ progeny)) | Dead
8 | CCCCN(CC)c1nc(NC2CCCCCCCCCCC2)ns1 [compound 332] |  |  |  |  |  |  |  |  | 75% | 121 mOD | 92% | 101 mOD | Dead | Dead | OK (no effect (˜1000+ progeny)) | Dead | Dead | OK (no effect (˜1000+ progeny)) | OK (no effect (˜1000+ progeny)) | L1
9 | CCCCN(Cc1ccccc1)c1nc(NC2CCCCCCCCCCC2)ns1 [compound 333] |  |  |  |  |  |  |  |  | 76% | 123 mOD | 93% | 102 mOD | Dead | Dead | OK (no effect (˜1000+ progeny)) | Dead | Dead | OK (no effect (˜1000+ progeny)) | OK (no effect (˜1000+ progeny)) | Dead
10 | C=CCN(CC=C)c1nc(NC2CCCCCCCCCCC2)ns1 [compound 334] |  |  |  |  |  |  |  |  | 88% | 141 mOD | 98% | 108 mOD | Dead | Dead | OK (no effect (˜1000+ progeny)) |  | Dead | OK (no effect (˜1000+ progeny)) | OK (no effect (˜1000+ progeny)) | 
11 | CN(CCc1ccccc1)c1nc(NC2CCCCCCCCCCC2)ns1 [compound 335] |  |  |  |  |  |  |  |  | 86% | 139 mOD | 97% | 107 mOD | Dead |  |  | Dead | Dead |  | < (reduced broodsize (250-500 progeny)) | 
12 | CN(Cc1ccccc1)c1nc(NC2CCCCCCCCCCC2)ns1 [compound 336] |  |  |  |  |  |  |  |  | 90% | 145 mOD | 97% | 107 mOD | Dead | Dead | OK (no effect (˜1000+ progeny)) |  | Dead/1AD/B! | OK (no effect (˜1000+ progeny)) | OK (no effect (˜1000+ progeny)) | 
13 | COc1ccc(CCN(C)c2nc(NC3CCCCCCCCCCC3)ns2)cc1OC [compound 337] |  |  |  |  |  |  |  |  | 68% | 110 mOD | 90% | 99 mOD | Dead | Dead | OK (no effect (˜1000+ progeny)) | Dead | Dead | B (low broodsize (25-100 progeny)) | OK (no effect (˜1000+ progeny)) | Dead
14 | FC(F)(F)c1cccc(N2CCN(c3nc(Cl)ns3)CC2)c1 [compound 338] |  |  |  |  |  |  |  |  | 116% | 186 mOD | 94% | 103 mOD | Dead |  | OK (no effect (˜1000+ progeny)) | B (low broodsize (25-100 progeny)) | 3AD/B | OK (no effect (˜1000+ progeny)) | < (reduced broodsize (250-500 progeny)) | < (reduced broodsize (250-500 progeny))
